From PubChem BioAssay (NCI)
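Protocol summary: plate cells (96-well), add compound at 5 concentrations, incubate 48 h, interpolate endpoints linearly. Abbreviation: GI50, concentration required for 50% inhibition of growth. Definition used: TGI = concentration required for complete inhibition of growth.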

What was measured:
Experiment in all cases: NCI anticancer screen, dose series, 48 h
[1] = test system: RPMI-8226 leukemia
[2] = test system: MDA-MB-468 breast
[3] = test system: HT29 colon
[4] = test system: RXF 393 renal
[5] = test system: T-47D breast
[6] = test system: OVCAR-4 ovarian
[7] = test system: LOX IMVI melanoma
[8] = test system: A549 NSCLC
[9] = test system: HS 578T breast
[10] = test system: COLO 205 colon
[11] = test system: MOLT-4 leukemia
[12] = test system: SN12C renal
[13] = test system: EKVX NSCLC
[14] = test system: NCI-H226 lung
[15] = test system: BT-549 breast
[16] = test system: NCI-H23 lung
[17] = test system: CAKI-1 renal
[18] = test system: SW-620 colon
[19] = test system: MCF7 breast
[20] = test system: UACC-257 melanoma
[21] = test system: HCT-15 colon
[22] = test system: DU-145 prostate
[23] = test system: SK-MEL-28 melanoma
[24] = test system: A498 renal
[25] = test system: 786-0 renal
[26] = test system: NCI-H460 lung
[27] = test system: M14 melanoma
[28] = test system: UO-31 renal
[29] = test system: K-562 leukemia
[30] = test system: PC-3 prostate
[31] = test system: OVCAR-3 ovarian
[32] = test system: SR leukemia
[33] = test system: SK-MEL-2 melanoma
[34] = test system: MDA-MB-435
[35] = test system: HOP-92 NSCLC
[36] = test system: HCT-116 colon
[37] = test system: SK-OV-3 ovarian
[38] = test system: NCI/ADR-RES ovarian
[39] = test system: U251 CNS
[40] = test system: NCI-H522 lung
[41] = test system: KM12 colon
[42] = test system: HOP-62 NSCLC
[43] = test system: ACHN renal
[44] = test system: IGROV1 ovarian
[45] = test system: OVCAR-8 ovarian
[46] = test system: SF-295 CNS
[47] = test system: TK-10 renal
[48] = test system: SK-MEL-5 melanoma
[49] = test system: HCC-2998 colon
[50] = test system: MALME-3M melanoma
[51] = test system: CCRF-CEM leukemia
[52] = test system: SF-539 CNS
[53] = test system: SF-268 CNS
[54] = test system: HL-60(TB) leukemia
[55] = test system: SNB-19 CNS
[56] = test system: MDA-MB-231 breast
[57] = test system: UACC-62 melanoma
[58] = test system: OVCAR-5 ovarian

Which results are given for `Cc1cc2c(c(O)c1Br)-c1ncoc1C(=O)[C@]1(C)CC[C@H](C(C)C)[C@H]21`?
GI50 [1]: 3.35 µM; TGI [1]: 15.7 µM; GI50 [2]: 2.14 µM; TGI [2]: 6.63 µM; GI50 [3]: 2.77 µM; TGI [3]: 16 µM; GI50 [4]: 4.16 µM; TGI [4]: 17.7 µM; GI50 [5]: 2.89 µM; TGI [5]: 21.2 µM; GI50 [6]: 4.1 µM; TGI [6]: 33.7 µM; GI50 [7]: 3.71 µM; TGI [7]: 14.5 µM; GI50 [8]: 4.33 µM; TGI [8]: 29.6 µM; GI50 [9]: 5.34 µM; TGI [9]: > 100 µM; GI50 [10]: 2.61 µM; TGI [10]: 10.3 µM; GI50 [11]: 3.18 µM; TGI [11]: 14.9 µM; GI50 [12]: 3.19 µM; TGI [12]: 12.9 µM; GI50 [13]: 6.77 µM; TGI [13]: 28.6 µM; GI50 [14]: 5.88 µM; TGI [14]: 22.1 µM; GI50 [15]: 4.64 µM; TGI [15]: 17.1 µM; GI50 [16]: 4.64 µM; TGI [16]: 47.3 µM; GI50 [17]: 4.73 µM; TGI [17]: 33.6 µM; GI50 [18]: 3.38 µM; TGI [18]: 17 µM; GI50 [19]: 3.45 µM; TGI [19]: 15.2 µM; GI50 [20]: 3.58 µM; TGI [20]: 18.7 µM; GI50 [21]: 2.62 µM; TGI [21]: 11.8 µM; GI50 [22]: 5 µM; TGI [22]: 21.2 µM; GI50 [23]: 4.37 µM; TGI [23]: 18.4 µM; GI50 [24]: > 100 µM; TGI [24]: > 100 µM; GI50 [25]: 7.18 µM; TGI [25]: 21.9 µM; GI50 [26]: 3.33 µM; TGI [26]: 14.5 µM; GI50 [27]: 2.85 µM; TGI [27]: 14 µM; GI50 [28]: 5 µM; TGI [28]: 24.8 µM; GI50 [29]: 2.93 µM; TGI [29]: 11.6 µM; GI50 [30]: 3.1 µM; TGI [30]: 20.5 µM; GI50 [31]: 3.83 µM; TGI [31]: 13.6 µM; GI50 [32]: 2.14 µM; TGI [32]: 7.25 µM; GI50 [33]: 2.51 µM; TGI [33]: 8.15 µM; GI50 [34]: 2.07 µM; TGI [34]: 5.23 µM; GI50 [35]: 1.03 µM; TGI [35]: 5.99 µM; GI50 [36]: 3.17 µM; TGI [36]: 13.8 µM; GI50 [37]: 6.72 µM; TGI [37]: > 100 µM; GI50 [38]: 2.82 µM; TGI [38]: 9.19 µM; GI50 [39]: 4.34 µM; TGI [39]: 17.1 µM; GI50 [40]: 2.18 µM; TGI [40]: 6.24 µM; GI50 [41]: 3.49 µM; TGI [41]: 35.6 µM; GI50 [42]: 4.45 µM; TGI [42]: 21.7 µM; GI50 [43]: 10.1 µM; TGI [43]: 34 µM; GI50 [44]: 4.42 µM; TGI [44]: 82.4 µM; GI50 [45]: 5.45 µM; TGI [45]: 22.4 µM; GI50 [46]: 3.31 µM; TGI [46]: 18 µM; GI50 [47]: 9.26 µM; TGI [47]: 74.3 µM; GI50 [48]: 2.95 µM; TGI [48]: 10.3 µM; GI50 [49]: 4.22 µM; TGI [49]: 17.7 µM; GI50 [50]: 2.61 µM; TGI [50]: 11.8 µM; GI50 [51]: 4.14 µM; TGI [51]: 27.1 µM; GI50 [52]: 4.08 µM; TGI [52]: 14.9 µM; GI50 [53]: 4.27 µM; TGI [53]: 34.3 µM; GI50 [54]: 2.19 µM; TGI [54]: 6.69 µM; GI50 [55]: 7.35 µM; TGI [55]: > 100 µM; GI50 [56]: 4.36 µM; TGI [56]: 18.8 µM; GI50 [57]: 2.46 µM; TGI [57]: 8.58 µM; GI50 [58]: 5.36 µM; TGI [58]: 23.1 µM
